# “Also recorded” adds a separate entry of the source. Like-named read-outs stand apart in the source and are kept apart here.
# Assays:
# [1] = alkalizer composition
# [2] = pH of alkalizer composition
# [3] = alkalizer composition; 22° C., T-F spindle, 6 rpm
# [4] = active component; cited from earlier work
# [5] = Tensile strength: break stress of treated hair fibers; details: hair fibers after alkalizer composition + oxidant
# [6] = for Lifting level normalized to NH3•H2O / Relative lifting level in percentage (LVirgin-LAlkalizer)/(LVirgin-LNaOH) / ΔL (change in color lifting) LVirgin-LAlkalizer: single alkalizer compositions, Table 5; for lifting of natural hair color, comparison in words: single alkalizer/oxidizer mixtures; for L Value: single alkalizer composition + volume 40 oxidizer developer on hair tresses, 37° C., 45 minutes, virgin 19
# keratin in hair [7] = experiment: DSC analysis: keratin denaturation temperature of treated hair
# keratin in hair [8] = tested on: keratin in hair
# keratinocytes = experiment: MultiTox-Fluor Multiplex Cytotoxicity Assay, keratinocytes; assay type: cell-based; details: for IC50: Keratinocyte, greater IC50 = less stress on the cells, unit inferred; for toxicity to the cell, comparison in words: keratinocytes
# Experimental: (§1) The effects of alkalizer compositions on outer root sheath cells and on keratinocytes was evaluated. The MultiTox-Fluor Multiplex Cytotoxicity Assay (Promega Corp., Madison, Wis.) simultaneously measures two protease activities: one is a marker of cell viability, and the other is a marker of cytotoxicity. In the assays, the responses of outer root sheath cells and keratinocytes to various concentrations of alkalizers were measured, and IC50, the concentration that provokes a mid-height response (midway between the baseline response and maximal response), was determined.
# outer root sheath cells = experiment: MultiTox-Fluor Multiplex Cytotoxicity Assay, outer root sheath cells; assay type: cell-based; details: for IC50: greater IC50 = less stress on the cells, unit inferred; for toxicity to the cell, comparison in words: outer root sheath cells
# Experimental: as §1
# [9] = single alkalizer compositions, Table 4A
# [10] = alkalizer composition: Table 2 base + alkalizer, same molar percentage
Structure (SMILES),Alkalinity [1] [mL/g],Viscosity (cP × 10^5) [3] [cP × 10^5],Lifting level normalized to NH3•H2O [6],Relative lifting level in percentage (LVirgin-LAlkalizer)/(LVirgin-LNaOH) [6] [%],ΔL (change in color lifting) LVirgin-LAlkalizer [6],"lifting of natural hair color, comparison in words [6]","pH [2, 10]",Damage level normalized to NH3•H2O (keratin in hair [8]),ΔT (change in denaturation temperature) TVirgin-TAlkalizer (keratin in hair [8]),IC50 (keratinocytes) [mM],"toxicity to the cell, comparison in words (keratinocytes)",L Value [6],IC50 (outer root sheath cells) [mM],"toxicity to the cell, comparison in words (outer root sheath cells)",other results
"CN(C)CCCO [DMAP, 3-Dimethyl-amino-1-propanol]",2.32,2.77,0.53,45.45,−8,performed significantly less well than ammonium hydroxide,–,–,–,–,–,–,–,–,"pH [2]: 10.58; pKa [4]: 9.27; break stress / fiber damage, comparison in words [5]: cause a similar amount of damage or less damage than their primary amine analogs; hair damage / denaturation temperature, comparison in words (keratin in hair [7]; DSC, single alkalizer compositions): performed the closest to ammonium hydroxide; also recorded: less damaging to hair than the ammonium hydroxide composition; also recorded: a better performer than ammonia; Denaturation Temperature (° C.) (keratin in hair [7]; single alkalizer composition + volume 40 (12%) oxidizer developer on hair tresses, 37° C., 45 minutes, virgin hair 150.42): 147.80 °C; % Relative damage level compared to NaOH (TVirgin-TAlkalizer)/(TVirgin-TNaOH) (keratin in hair [7]; [9]): 18.33%; Damage level normalized to NH3•H2O (keratin in hair [7]; [9]): 0.94; ΔT (change in denaturation temperature) TVirgin-TAlkalizer (keratin in hair [7]; [9]): 2.62"
"NCC(O)CO (centres unmarked) [Isoserinol, 3-Amino-1,2-propanediol]",2.45,3.75,1.13,96.59,−17,"significantly better than AMP and about the same as MEA, at lifting hair color; also recorded: better at lifting natural hair color than the ammonium hydroxide/oxidizer mixture; also recorded: about the same effectiveness as MEA, and significantly better effectiveness than AMP",10.56,2.09,5.83,97,significantly less toxic than ammonium hydroxide,36,56.3,significantly less toxic than ammonium hydroxide,"% Relative damage level compared to NaOH (TVirgin-TAlkalizer)/(TVirgin-TNaOH) (keratin in hair [8]): 40.80%; hair damage / denaturation temperature, comparison in words (keratin in hair [8]): performed significantly better than MEA and AMP"
"NCCO [MEA, monoethanolamine, reference compound]",2.35,3.02,–,–,−17,–,10.85,3.03,8.46,23,more toxic to the cell than ammonium hydroxide,36,21.4,more toxic to the cell than ammonium hydroxide,–

# — US20220362122A1, “Hair Treatment Compositions With Amine Derivatives” (ELC Management LLC, priority 2021, published 2022)
